Data from the supplement of paper PMC4862054.
Several values for one entry are separate records, joined by “and”; a condition that tells them apart may be missing. Equal values may be shown once.

Tests used:
Test in all cases: normalised viability (% of control), CellTiter-Blue; higher = more viable cells (about 100 = DMSO control)
Details in all cases: incubation time: 72 h
MDA-MB-453 [1] = tested on: MDA-MB-453
Description: (§1)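 DSRT, CellTiter-Blue viability, 72 h incubation. Signal is normalised to DMSO and benzethonium chloride controls. Value is the normalised response at dose 8.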

CAL-148 [2] = tested on: CAL-148
Description: as §1

CAL-85-1 [3] = tested on: CAL-85-1
Description: as §1

HDQ-P1 [4] = tested on: HDQ-P1
Description: as §1

DU-4475 [5] = tested on: DU-4475
Description: as §1

CAL-51 [6] = tested on: CAL-51
Description: as §1

MDA-MB-453 [7] = tested on: MDA-MB-453; remark: listed apart in the source
Description: (§2)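 DSRT, CellTiter-Blue viability, 72 h incubation. Signal is normalised to DMSO and benzethonium chloride controls. Value is the normalised response at dose 6.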

CAL-148 [8] = tested on: CAL-148; remark: listed apart in the source
Description: as §2

CAL-85-1 [9] = tested on: CAL-85-1; remark: listed apart in the source
Description: as §2

HDQ-P1 [10] = tested on: HDQ-P1; remark: listed apart in the source
Description: as §2

DU-4475 [11] = tested on: DU-4475; remark: listed apart in the source
Description: as §2

CAL-51 [12] = tested on: CAL-51; remark: listed apart in the source
Description: as §2

SMILES: CN(Cc1cnc2nc(N)nc(N)c2n1)c1ccc(C(=O)N[C@@H](CCC(=O)O)C(=O)O)cc1 [Methotrexate] (3000 nM)
- normalised viability (MDA-MB-453 [1]): 91.4%
- normalised viability (CAL-148 [2]): 56.3%
- normalised viability (CAL-85-1 [3]): 57.7%
- normalised viability (HDQ-P1 [4]): 82.7%
- normalised viability (DU-4475 [5]): 101%
- normalised viability (CAL-51 [6]): 39.6%

SMILES: COc1c2occc2cc2ccc(=O)oc12 [Methoxsalen] (3000 nM)
- normalised viability (MDA-MB-453 [1]): 114%
- normalised viability (CAL-148 [2]): 91.4%
- normalised viability (CAL-85-1 [3]): 96.2%
- normalised viability (HDQ-P1 [4]): 118%
- normalised viability (DU-4475 [5]): 94.6%
- normalised viability (CAL-51 [6]): 112%

SMILES: CO[C@@H]1[C@H](N(C)C(=O)c2ccccc2)C[C@H]2O[C@]1(C)n1c3ccccc3c3c4c(c5c6ccccc6n2c5c31)C(=O)NC4 [Midostaurin] (3000 nM)
- normalised viability (MDA-MB-453 [1]): 69.6%
- normalised viability (CAL-148 [2]): 84.4%
- normalised viability (CAL-85-1 [3]): 73.4%
- normalised viability (HDQ-P1 [4]): 50.5%
- normalised viability (DU-4475 [5]): 3.23%
- normalised viability (CAL-51 [6]): 6.39%

SMILES: CO[C@@]12[C@H](COC(N)=O)C3=C(C(=O)C(C)=C(N)C3=O)N1C[C@@H]1N[C@@H]12 [Mitomycin C] (3000 nM)
- normalised viability (MDA-MB-453 [1]): 58.8%
- normalised viability (CAL-148 [2]): 48.5%
- normalised viability (CAL-85-1 [3]): 71.6%
- normalised viability (HDQ-P1 [4]): 85.2%
- normalised viability (DU-4475 [5]): 91.5%
- normalised viability (CAL-51 [6]): 102%

SMILES: CCNC(=O)c1noc(-c2cc(C(C)C)c(O)cc2O)c1-c1ccc(CN2CCOCC2)cc1 [NVP-AUY922] (30 nM)
- normalised viability (MDA-MB-453 [7]): 9.09%
- normalised viability (CAL-148 [8]): 16%
- normalised viability (CAL-85-1 [9]): 30.5%
- normalised viability (HDQ-P1 [10]): 18%
- normalised viability (DU-4475 [11]): 0.85%
- normalised viability (CAL-51 [12]): 29.4%

SMILES: CCNC(=O)c1noc(-c2cc(C(C)C)c(O)cc2O)c1-c1ccc(CN2CCOCC2)cc1 [NVP-AUY922] (300 nM)
- normalised viability (MDA-MB-453 [1]): 8.88%
- normalised viability (CAL-148 [2]): 16.3%
- normalised viability (CAL-85-1 [3]): 24.6%
- normalised viability (HDQ-P1 [4]): 30.4%
- normalised viability (DU-4475 [5]): 0.62%
- normalised viability (CAL-51 [6]): 8.64%

SMILES: CC1(C)CCC(c2ccc(Cl)cc2)=C(CN2CCN(c3ccc(C(=O)NS(=O)(=O)c4ccc(N[C@H](CCN5CCOCC5)CSc5ccccc5)c(S(=O)(=O)C(F)(F)F)c4)cc3)CC2)C1 [Navitoclax] (300 nM)
- normalised viability (MDA-MB-453 [7]): 78.1%
- normalised viability (CAL-148 [8]): 90.4%
- normalised viability (CAL-85-1 [9]): 75.2%
- normalised viability (HDQ-P1 [10]): 50.2%
- normalised viability (DU-4475 [11]): 47.2%
- normalised viability (CAL-51 [12]): 99.9%

SMILES: CC1(C)CCC(c2ccc(Cl)cc2)=C(CN2CCN(c3ccc(C(=O)NS(=O)(=O)c4ccc(N[C@H](CCN5CCOCC5)CSc5ccccc5)c(S(=O)(=O)C(F)(F)F)c4)cc3)CC2)C1 [Navitoclax] (3000 nM)
- normalised viability (MDA-MB-453 [1]): 70.3%
- normalised viability (CAL-148 [2]): 71%
- normalised viability (CAL-85-1 [3]): 87.8%
- normalised viability (HDQ-P1 [4]): 43.5%
- normalised viability (DU-4475 [5]): 20.1%
- normalised viability (CAL-51 [6]): 95.3%

SMILES: Cc1cn(-c2cc(NC(=O)c3ccc(C)c(Nc4nccc(-c5cccnc5)n4)c3)cc(C(F)(F)F)c2)cn1 [Nilotinib] (300 nM)
- normalised viability (MDA-MB-453 [7]): 94.5% and 91.4%
- normalised viability (CAL-148 [8]): 94.6% and 101%
- normalised viability (CAL-85-1 [9]): 92.1% and 86%
- normalised viability (HDQ-P1 [10]): 47.2% and 70.8%
- normalised viability (DU-4475 [11]): 90.1% and 113%
- normalised viability (CAL-51 [12]): 109% and 112%

SMILES: Cc1cn(-c2cc(NC(=O)c3ccc(C)c(Nc4nccc(-c5cccnc5)n4)c3)cc(C(F)(F)F)c2)cn1 [Nilotinib] (3000 nM)
- normalised viability (MDA-MB-453 [1]): 87.6% and 97.1%
- normalised viability (CAL-148 [2]): 83.9% and 89.2%
- normalised viability (CAL-85-1 [3]): 69.3% and 78.6%
- normalised viability (HDQ-P1 [4]): 67.9% and 66.5%
- normalised viability (DU-4475 [5]): 97.8% and 107%
- normalised viability (CAL-51 [6]): 108% and 115%

SMILES: C=CCN(/C=C1/C(=O)O[C@H](COC)[C@@]2(C)C1=C(O)C(=O)C1=C2[C@H](OC(C)=O)C[C@]2(C)C(=O)CC[C@@H]12)CC=C [PX-866] (300 nM)
- normalised viability (MDA-MB-453 [7]): 112%
- normalised viability (CAL-148 [8]): 116%
- normalised viability (CAL-85-1 [9]): 103%
- normalised viability (HDQ-P1 [10]): 75.8%
- normalised viability (DU-4475 [11]): 93%
- normalised viability (CAL-51 [12]): 110%

SMILES: C=CCN(/C=C1/C(=O)O[C@H](COC)[C@@]2(C)C1=C(O)C(=O)C1=C2[C@H](OC(C)=O)C[C@]2(C)C(=O)CC[C@@H]12)CC=C [PX-866] (3000 nM)
- normalised viability (MDA-MB-453 [1]): 114%
- normalised viability (CAL-148 [2]): 108%
- normalised viability (CAL-85-1 [3]): 102%
- normalised viability (HDQ-P1 [4]): 70.2%
- normalised viability (DU-4475 [5]): 95.4%
- normalised viability (CAL-51 [6]): 107%

SMILES: CC[C@H](CO)Nc1nc(NCc2ccccc2)c2ncn(C(C)C)c2n1 [Roscovitine] (300 nM)
- normalised viability (MDA-MB-453 [7]): 86.9%
- normalised viability (CAL-148 [8]): 88.6%
- normalised viability (CAL-85-1 [9]): 93.7%
- normalised viability (HDQ-P1 [10]): 59.7%
- normalised viability (DU-4475 [11]): 97.5%
- normalised viability (CAL-51 [12]): 104%

SMILES: CC[C@H](CO)Nc1nc(NCc2ccccc2)c2ncn(C(C)C)c2n1 [Roscovitine] (3000 nM)
- normalised viability (MDA-MB-453 [1]): 86.5%
- normalised viability (CAL-148 [2]): 80.4%
- normalised viability (CAL-85-1 [3]): 82.6%
- normalised viability (HDQ-P1 [4]): 91%
- normalised viability (DU-4475 [5]): 114%
- normalised viability (CAL-51 [6]): 107%
